This note sets out measurements from patent US11464770B2, “Anticancer pharmaceutical composition” (NATIONAL CANCER CENTER, priority 2016, dated 2022).

Read-outs that look alike come from different tables or passages of the source. Some results are limits rather than exact numbers.

For this test, the system named is lung cancer cell lines (e.g. NCI-H23, NCI-H1229). Briefly: Cell based assay, cell viability (CellTiter-Glo), lung cancer cell lines. The settings on record: Homo sapiens, 72 hours treatment, CellTiter-Glo. The method, then:
Commercially available bladder cancer, prostate cancer, lung cancer, breast cancer, blood cancer, pancreatic cancer, colorectal cancer, brain cancer, neuroblastoma, melanoma, liver cancer, cervical carcinoma, ovarian cancer, renal cancer, and papilloma cell lines were each treated with trypsin-EDTA and cultured, followed by being seeded in each well of a 96 well plate. After 24 hours of treatment at constant temperature, the respective cells were treated with the candidate compound so that a final concentration became 0 to 2 μM. The treated cells were additionally cultured for 72 hours, and cell viability was measured by using an ATP detection method (CellTiter-Glo® Luminescent Cell Viability Assay, Promega).

Where [1] appears, read: A549 cells, read-out: IC50, lung cancer cell line A549.
Setting [2] is: DMS 114 cells, read-out: IC50, lung cancer cell line DMS 114.
[3] abbreviates: NCI-H23 cells, read-out: IC50, lung cancer cell line NCI-H23.
Setting [4] is: NCI-H460 cells, read-out: IC50, lung cancer cell line NCI-H460.
The mark [5] stands for this setting: NCI-H522 cells, read-out: IC50, lung cancer cell line NCI-H522.
Setting [6] is: NCI-H1299 cells, read-out: IC50, lung cancer cell line NCI-H1299.
[7] abbreviates: NCI-H1437 cells, read-out: IC50, lung cancer cell line NCI-H1437.

For `CC(=O)c1c([S+]([O-])CC#N)[nH]c2c(Br)ccc(Cl)c2c1=O` (centres unmarked) [Compound 65, 2-((3-acetyl-8-bromo-5-chloro-4-oxo-1,4-dihydroquinolin-2-yl)sulfinyl)acetonitrile], the IC50 reads like this: under setting [1], greater than 2000 nM; under setting [2], greater than 2000 nM; (MRC-5 cells, read-out: IC50) greater than 2000 nM; under setting [3], greater than 2000 nM; under setting [4], greater than 2000 nM; under setting [5], greater than 2000 nM. Further, the IC50 is greater than 2000 nM under setting [6] and greater than 10000 nM under setting [7].

With `COc1cccc2[nH]c(SCc3ccc(S(F)(F)(F)(F)F)cc3)c(C(C)=O)c(=O)c12` [Compound 92, 3-acetyl-5-methoxy-2-((4-(pentafluoro--sulfanyl)benzyl)thio)quinolin-4(1H)-one], the half-maximal inhibitory concentration (IC50) by setting is: under setting [1], greater than 2000 nM; under setting [2], greater than 2000 nM; (MRC-5 cells, read-out: IC50) greater than 2000 nM; under setting [3], greater than 2000 nM; under setting [4], greater than 2000 nM; under setting [5], greater than 2000 nM. Also, the IC50 is greater than 2000 nM under setting [6] and greater than 10000 nM under setting [7].

Take `CSc1c(C(C)=O)c(=O)c2c(Cl)ccc(Br)c2n1S(=O)(=O)c1ccc(C(C)(C)C)cc1` [Compound 40, 3-acetyl-8-bromo-1-((4-(tert-butyl)phenyl)sulfonyl)-5-chloro-2-(methylthio)quinolin-4(1H)-one]: the IC50 under setting [1] was greater than 2000 nM; the concentration for half-maximal inhibition (IC50) under setting [2] is greater than 2000 nM; the half-maximal inhibitory concentration (IC50) (MRC-5 cells, read-out: IC50) was greater than 2000 nM; the IC50 under setting [3] was greater than 2000 nM; the IC50 under setting [4] is greater than 2000 nM; the IC50 under setting [5] is greater than 2000 nM. The half-inhibitory concentration (IC50) is greater than 2000 nM under setting [6] and greater than 10000 nM under setting [7].

`COc1ccccc1[S+]([O-])c1[nH]c2c(Br)ccc(Cl)c2c(=O)c1C(C)=O` (centres unmarked) [Compound 15, 3-acetyl-8-bromo-5-chloro-2-((2-methoxyphenyl)sulfinyl)quinolin-4(1H)-one]: the 50% inhibitory concentration (IC50) under setting [1] is greater than 2000 nM; the half-maximal inhibitory concentration (IC50) under setting [2] was greater than 2000 nM; the 50% inhibitory concentration (IC50) (MRC-5 cells, read-out: IC50) is greater than 2000 nM; the IC50 under setting [3] stood at 1560 nM; the IC50 under setting [4] is greater than 2000 nM; the 50% inhibitory concentration (IC50) under setting [5] was greater than 2000 nM. The IC50 is, setting by setting: under setting [6], greater than 2000 nM; under setting [7], greater than 10000 nM.

For the molecule `CC(=O)c1c([S+](C)[O-])[nH]c2c(Cl)ccc(Cl)c2c1=O` (centres unmarked) [Compound 6, 3-acetyl-5,8-dichloro-2-(methylsulfinyl)quinolin-4(1H)-one], the IC50 is, setting by setting: under setting [1], greater than 2000 nM; under setting [2], greater than 2000 nM; (MRC-5 cells, read-out: IC50) greater than 2000 nM; under setting [3], 1310 nM; under setting [4], greater than 2000 nM; under setting [5], greater than 2000 nM. Also, the concentration for half-maximal inhibition (IC50) is, setting by setting: under setting [6], 1840 nM; under setting [7], greater than 10000 nM.

On to `Cc1cc(C[S+]([O-])c2[nH]c3c(Cl)ccc(Cl)c3c(=O)c2C(=O)c2ccccc2)no1` (centres unmarked) [Compound 88, 3-benzoyl-5,8-dichloro-2-(((5-methylisoxazol-3-yl)methyl)sulfinyl)quinolin-4(1H)-one], for which the 50% inhibitory concentration (IC50) under setting [1] is greater than 2000 nM; the IC50 under setting [2] is greater than 2000 nM; the IC50 (MRC-5 cells, read-out: IC50) was greater than 2000 nM; the concentration for half-maximal inhibition (IC50) under setting [3] was greater than 2000 nM; the half-maximal inhibitory concentration (IC50) under setting [4] was greater than 2000 nM; the IC50 under setting [5] was greater than 2000 nM. The IC50 reads like this: under setting [6], greater than 2000 nM; under setting [7], greater than 10000 nM.

For the molecule `CC(=O)c1c(SCc2ccccc2)nc2c(Br)ccc(Cl)c2c1O` [Compound 52, 1-(2-(benzylthio)-8-bromo-5-chloro-4-hydroxyquinolin-3-yl)ethan-1-one], the IC50 by setting is: under setting [1], greater than 2000 nM; under setting [2], greater than 2000 nM; (MRC-5 cells, read-out: IC50) greater than 2000 nM; under setting [3], greater than 2000 nM; under setting [4], greater than 2000 nM; under setting [5], greater than 2000 nM. Moreover, the half-inhibitory concentration (IC50) was greater than 2000 nM under setting [6] and greater than 10000 nM under setting [7].

`CC(=O)c1c([S+]([O-])Cc2ccc(C(F)(F)F)o2)[nH]c2c(F)ccc(F)c2c1=O` (centres unmarked) [Compound 81, 3-acetyl-5,8-difluoro-2-(((5-(trifluoromethyl)furan-2-yl)methyl)sulfinyl)quinolin-4(1H)-one]: the concentration for half-maximal inhibition (IC50) runs as follows: under setting [1], greater than 2000 nM; under setting [2], greater than 2000 nM; (MRC-5 cells, read-out: IC50) greater than 2000 nM; under setting [3], greater than 2000 nM; under setting [4], greater than 2000 nM; under setting [5], greater than 2000 nM. The IC50 by setting is: under setting [6], greater than 2000 nM; under setting [7], greater than 10000 nM.

For `O=C(c1ccccc1)c1c([S+]([O-])Cc2ccc(S(F)(F)(F)(F)F)cc2)[nH]c2c(F)ccc(F)c2c1=O` (centres unmarked) [Compound 87, 3-benzoyl-5,8-difluoro-2-((4-(pentafluoro--sulfanyl)benzyl)sulfinyl)quinolin-4(1H)-one], the IC50 under setting [1] is greater than 2000 nM; the 50% inhibitory concentration (IC50) under setting [2] was greater than 2000 nM; the 50% inhibitory concentration (IC50) (MRC-5 cells, read-out: IC50) is greater than 2000 nM; the IC50 under setting [3] was greater than 2000 nM; the concentration for half-maximal inhibition (IC50) under setting [4] is greater than 2000 nM; the half-inhibitory concentration (IC50) under setting [5] was greater than 2000 nM. Besides, the IC50 under setting [6] was greater than 2000 nM and the IC50 under setting [7] was greater than 10000 nM.

As for `Cc1cc(C[S+]([O-])c2[nH]c3c(Cl)ccc(Cl)c3c(=O)c2C(=O)C2CC2)no1` (centres unmarked) [Compound 97, 5,8-dichloro-3-(cyclopropanecarbonyl)-2-(((5-methylisoxazol-3-yl)methyl)sulfinyl)quinolin-4(1H)-one], the IC50 was greater than 2000 nM under setting [1]; greater than 2000 nM under setting [2]; 1430 nM (MRC-5 cells, read-out: IC50); 1090 nM under setting [3]; 1460 nM under setting [4]; 1320 nM under setting [5]. For the same molecule, the IC50 under setting [6] stood at 1480 nM and the IC50 under setting [7] is greater than 10000 nM.

Take `CSc1c(C(C)=O)c(=O)c2c(Cl)ccc(Br)c2n1S(=O)(=O)c1ccc([N+](=O)[O-])cc1` [Compound 38, 3-acetyl-8-bromo-5-chloro-2-(methylthio)-1-((4-nitrophenyl)sulfonyl)quinolin-4(1H)-one]: the IC50 is, setting by setting: under setting [1], greater than 2000 nM; under setting [2], greater than 2000 nM; (MRC-5 cells, read-out: IC50) greater than 2000 nM; under setting [3], greater than 2000 nM; under setting [4], greater than 2000 nM; under setting [5], greater than 2000 nM. Also, the IC50 was greater than 2000 nM under setting [6] and greater than 10000 nM under setting [7].

For the molecule `CC(=O)c1c([S+]([O-])Cc2ccc(C(=O)c3ccccc3)cc2)[nH]c2c(Br)ccc(Cl)c2c1=O` (centres unmarked) [Compound 63, 3-acetyl-2-((4-benzoylbenzyl)sulfinyl)-8-bromo-5-chloroquinolin-4(1H)-one], the IC50 reads like this: under setting [1], greater than 2000 nM; under setting [2], greater than 2000 nM; (MRC-5 cells, read-out: IC50) greater than 2000 nM; under setting [3], 1700 nM; under setting [4], greater than 2000 nM; under setting [5], greater than 2000 nM. Further, the IC50 is, setting by setting: under setting [6], greater than 2000 nM; under setting [7], greater than 10000 nM.

On to `CC(=O)c1c(SCc2ccccc2)[nH]c2c(Br)ccc(Cl)c2c1=O` [Compound 3, 3-acetyl-2-(benzylthio)-8-bromo-5-chloroquinolin-4(1H)-one], for which the IC50 is, setting by setting: under setting [1], greater than 2000 nM; under setting [2], greater than 2000 nM; (MRC-5 cells, read-out: IC50) greater than 2000 nM; under setting [3], greater than 2000 nM; under setting [4], greater than 2000 nM; under setting [5], greater than 2000 nM. For the same molecule, the concentration for half-maximal inhibition (IC50) is greater than 2000 nM under setting [6] and greater than 10000 nM under setting [7].

For `CC(=O)c1c([S+]([O-])C(C)c2ccccc2)[nH]c2c(Br)ccc(Cl)c2c1=O` (centres unmarked) [Compound 26, 3-acetyl-8-bromo-5-chloro-2-((1-phenylethyl)sulfinyl)quinolin-4(1H)-one], the concentration for half-maximal inhibition (IC50) reads like this: under setting [1], greater than 2000 nM; under setting [2], greater than 2000 nM; (MRC-5 cells, read-out: IC50) greater than 2000 nM; under setting [3], greater than 2000 nM; under setting [4], greater than 2000 nM; under setting [5], greater than 2000 nM. The concentration for half-maximal inhibition (IC50) runs as follows: under setting [6], greater than 2000 nM; under setting [7], greater than 10000 nM.

Consider `CC(=O)c1c(SCc2ccc([N+](=O)[O-])cc2)[nH]c2c(Br)ccc(Cl)c2c1=O` [Compound 32, 3-acetyl-8-bromo-5-chloro-2-((4-nitrobenzyl)thio)quinolin-4(1H)-one], for which the IC50 was greater than 2000 nM under setting [1]; greater than 2000 nM under setting [2]; greater than 2000 nM (MRC-5 cells, read-out: IC50); greater than 2000 nM under setting [3]; greater than 2000 nM under setting [4]; greater than 2000 nM under setting [5]. Also, the half-inhibitory concentration (IC50) runs as follows: under setting [6], greater than 2000 nM; under setting [7], greater than 10000 nM.

`CC(=O)c1c(SC(C)C)[nH]c2c(Br)ccc(Cl)c2c1=O` [Compound 24, 3-acetyl-8-bromo-5-chloro-2-(isopropylthio)quinolin-4(1H)-one]: the IC50 by setting is: under setting [1], greater than 2000 nM; under setting [2], greater than 2000 nM; (MRC-5 cells, read-out: IC50) greater than 2000 nM; under setting [3], greater than 2000 nM; under setting [4], greater than 2000 nM; under setting [5], greater than 2000 nM. For the same molecule, the concentration for half-maximal inhibition (IC50) under setting [6] is greater than 2000 nM and the half-maximal inhibitory concentration (IC50) under setting [7] is greater than 10000 nM.
